The test relates to myosin heavy chain (MHC) IIb mRNA. The test is described as follows: Myosin heavy chain (MHC) IIb mRNA expression in masseter muscle by RT-PCR. Type of test: in vivo, rat. To be noted: masseter muscle of intact female rats; untreated control = 100%. The source says:
MHC is the predominant protein in skeletal muscle encoded by a multigene family expressed in a tissue-specific and developmentally regulated manner [Adams et al 1999]. In steady state, mRNA expression usually parallels the pattern of MHC protein expression. Because transcription of MHC mRNA occurs in advance of MHC protein translation, and the increased sensitivity of RT-PCR compared to western blotting, rapid changes in mRNA expression can be detected and used to analyze the subtle dynamic effects of muscle anabolism [Wright et al 1997].
The masseter muscle dissected from untreated intact female rats was set as the control level (representing 100%) of MHC IIb expression (FIG. 7A). Intact female rats treated with androgens were evaluated against the untreated controls for the effect of treatment on MHC IIb from masseter.

The results in this text go back to patent US20050080054A1, “Treating androgen decline in aging male (ADAM)-associated conditions with SARMS” (priority 2002, published 2005).

For the compound `CC(=O)Nc1ccc(OC[C@](C)(O)C(=O)Nc2ccc([N+](=O)[O-])c(C(F)(F)F)c2)cc1` [Compound VI], the “MHC type IIb transcription, of untreated control” value was 137%.
